Patent US8791050B2, “Herbicidal compositions” (priority 1998, dated 2014)

Legend:
Assay type in all cases: in vivo
[1] = test system: rice; assay: Selectivity: damage to rice, field trial
Procedure: The damage and development of all above-ground parts of the plants were recorded. […] The scores of in each case 4 plots were averaged.
Crop plants were grown outdoors on plots under natural outdoor conditions, and seeds or rhizome pieces of typical harmful plants were laid out or the natural weed growth was utilized.

[2] = test system: Eleusine indica (ELEIN); assay: Herbicidal effect in rice, field trial, Eleusine indica; conditions: Table 4 field trial, post-emergence 2-4-leaf stage, scoring 28 days after application, 45 g of AS/ha
Procedure: (§1) The herbicidal efficacy of the active compounds or active compound mixtures was scored visually using the treated plots in comparison to untreated control plots. The damage and development of all above-ground parts of the plants were recorded. Scoring was carried out using a percentage scale (100% effect=all plants killed; 50% effect=50% of the plants and the green parts of the plants killed; 0% effect=no noticeable effect=like control plot). The scores of in each case 4 plots were averaged.
(§2) If the observed activity values already exceed the formal sum of the values for the trials with the individual applications, they also exceed the expected value according to Colby which is calculated using the following formula and which is likewise considered to be an indication of synergism (cf. S. R. Colby; in Weeds 15 (1967) pp. 20 to 22): E=A+B−(A·B/100)
(§3) Crop plants were grown outdoors on plots under natural outdoor conditions, and seeds or rhizome pieces of typical harmful plants were laid out or the natural weed growth was utilized. Treatment with the compositions according to the invention was carried out after the harmful plants had emerged and the crop plants were, generally, at the 2- to 4-leaf stage; in some cases (as stated), application of individual active compounds or active compound combinations was carried out pre-emergence (cf. Example 1) or as a sequential treatment partly pre-emergence and/or post-emergence.
(§4) After the application, for example 2, 4, 6 and 8 weeks after the application, the effect of the preparations was scored visually by comparison with untreated controls (cf. scoring in Example 1). In the field trial as well, the compositions according to the invention have synergistic herbicidal activity against a broad spectrum of economically important weed grasses and broad-leaved weeds. […] Moreover, the effects in essential phases of the scoring period were above the expected values according to Colby (cf. scoring in Example 1), also indicating synergism. […]

[3] = test system: Sagittaria pygmaea (SAGPY); assay: Herbicidal effect in rice, greenhouse trial, Sagittaria pygmaea; conditions: Table 5 greenhouse trial, post-emergence 1-2-leaf stage, scoring 20 days after application
Procedure: as §1, §2
Seeds or rhizome pieces of monocotyledonous and dicotyledonous weeds are placed in sandy loam soil in pots, covered with soil and grown in a greenhouse under good growth conditions (temperature, atmospheric humidity, water supply). […] The compositions according to the invention, formulated as wettable powders or as emulsion concentrates, are sprayed, at various dosages, onto the green parts of the plant at an application rate of 600 to 800 l of water/ha (converted). After the test plants have been in the greenhouse for about 3 to 4 weeks under ideal growth conditions, the effect of the preparations is scored visually by comparison with untreated controls. The compositions according to the invention also have a good herbicidal post-emergence activity against a broad spectrum of economically important weed grasses and weeds.
(§5) Frequently, activities of the combinations according to the invention are observed which exceed the formal sum of the activities when the herbicides are applied individually.

[4] = test system: Echinochloa crus-galli (ECHCG); assay: Herbicidal effect in rice, greenhouse trial, Echinochloa crus-galli; conditions: Table 6 greenhouse trial, post-emergence 3-4-leaf stage, scoring 20 days after application
Procedure: as §1, §2
Seeds or rhizome pieces of monocotyledonous and dicotyledonous weeds are placed in sandy loam soil in pots, covered with soil and grown in a greenhouse under good growth conditions (temperature, atmospheric humidity, water supply). Three weeks after sowing, the test plants are treated at the three-leaf stage with the compositions according to the invention. The compositions according to the invention, formulated as wettable powders or as emulsion concentrates, are sprayed, at various dosages, onto the green parts of the plant at an application rate of 600 to 800 l of water/ha (converted). After the test plants have been in the greenhouse for about 3 to 4 weeks under ideal growth conditions, the effect of the preparations is scored visually by comparison with untreated controls. The compositions according to the invention also have a good herbicidal post-emergence activity against a broad spectrum of economically important weed grasses and weeds.
as §5

[5] = test system: rice; assay: Selectivity: damage to rice, greenhouse trial; conditions: scoring 20 days after application
[6] = test system: Echinochloa colona (ECHCO); assay: Herbicidal effect in rice, field trial, Echinochloa colona; conditions: post-emergence 2-4-leaf stage, 45 g of AS/ha
Procedure: as §1, §2, §3
(§6) After the application, for example 2, 4, 6 and 8 weeks after the application, the effect of the preparations was scored visually by comparison with untreated controls (cf. scoring in Example 1). In the field trial as well, the compositions according to the invention have synergistic herbicidal activity against a broad spectrum of economically important weed grasses and broad-leaved weeds. […] Moreover, the effects in essential phases of the scoring period were above the expected values according to Colby (cf. scoring in Example 1), also indicating synergism. In contrast, the crop plants were, as a consequence of the treatments with the herbicidal compositions, damaged only to a small degree, if at all.

[7] = test system: Echinochloa crus-galli (ECHCG); assay: Herbicidal effect in rice, field trial, Echinochloa crus-galli
Procedure: as §1, §2, §3, §6

[8] = test system: Cyperus iria (CYPIR); assay: Herbicidal effect in rice, field trial, Cyperus iria; conditions: Table 14 field trial, post-emergence 3-leaf stage, scoring 42 days after application, 1500 g of AS/ha
Procedure: as §1, §2, §3, §4

[9] = test system: Amaranthus retroflexus (AMARE); assay: Herbicidal effect in rice, field trial, Amaranthus retroflexus; conditions: Table 7 field trial, post-emergence 2-4-leaf stage, scoring 28 days after application, 3000 g of AS/ha
Procedure: as §1, §2, §3, §4

[10] = test system: Sesbania exaltata (SEBEX); assay: Herbicidal effect in rice, field trial, Sesbania exaltata; conditions: Table 10 field trial, post-emergence 2-4-leaf stage, scoring 28 days after application, 32 g of AS/ha
Procedure: as §1, §2
Crop plants were grown outdoors on plots under natural outdoor conditions, and seeds or rhizome pieces of typical harmful plants were laid out or the natural weed growth was utilized. […]
After the application, for example 2, 4, 6 and 8 weeks after the application, the effect of the preparations was scored visually by comparison with untreated controls (cf. scoring in Example 1). […]

[11] = Table 12 field trial, post-emergence 3-leaf stage, scoring 12 days after application, 20 g of AS/ha
[12] = Table 12 field trial, post-emergence 3-leaf stage, scoring 12 days after application, 40 g of AS/ha
[13] = Table 12 field trial, post-emergence 3-leaf stage, scoring 12 days after application, 80 g of AS/ha
[14] = Table 6 greenhouse trial, post-emergence 3-4-leaf stage, 18 g of AS/ha
[15] = Table 6 greenhouse trial, post-emergence 3-4-leaf stage, 37 g of AS/ha
[16] = Table 6 greenhouse trial, post-emergence 3-4-leaf stage, 75 g of AS/ha
[17] = Table 12 field trial, post-emergence 3-leaf stage, scoring 12 days after application, 1250 g of AS/ha
[18] = Table 12 field trial, post-emergence 3-leaf stage, scoring 12 days after application, 2500 g of AS/ha
[19] = Table 12 field trial, post-emergence 3-leaf stage, scoring 12 days after application, 5000 g of AS/ha
[20] = Table 13 field trial, post-emergence 1-2-leaf stage, scoring 28 days after application, 37.5 g of AS/ha

CCOC(=O)[C@@H](C)Oc1ccc(Oc2nc3ccc(Cl)cc3o2)cc1 [(A1.1), fenoxaprop-P-ethyl]
Damage (in %) to rice ([1]; Table 2 field trial, post-emergence 2-4-leaf stage, scoring 21 days after application, 45 g of AS/ha): 0% | Damage (in %) to rice ([1]; Table 3 field trial, post-emergence 2-4-leaf stage, scoring 28 days after application, 45 g of AS/ha): 21% | Damage (in %) to rice ([1]; Table 4 field trial, post-emergence 2-4-leaf stage, scoring 28 days after application, 45 g of AS/ha): 21% | Damage (in %) to rice [1, 11]: 0% | Damage (in %) to rice [1, 12]: 0% | Damage (in %) to rice [1, 13]: 5% | Herbicidal effect (in %) against ELEIN [2]: 80% | Herbicidal effect (in %) against SAGPY ([3]; 37.5 g of AS/ha): 0% | Herbicidal effect (in %) against SAGPY ([3]; 75 g of AS/ha): 0% | Herbicidal effect (in %) against ECHCG ([4]; 18 g of AS/ha): 15% | Herbicidal effect (in %) against ECHCG ([4]; 37 g of AS/ha): 40% | Herbicidal effect (in %) against ECHCG ([4]; 75 g of AS/ha): 82% | Damage (in %) to rice ([5]; Table 5 greenhouse trial, post-emergence 1-2-leaf stage, 37.5 g of AS/ha): 0% | Damage (in %) to rice ([5]; Table 5 greenhouse trial, post-emergence 1-2-leaf stage, 75 g of AS/ha): 8% | Damage (in %) to rice [5, 14]: 0% | Damage (in %) to rice [5, 15]: 0% | Damage (in %) to rice [5, 16]: 3% | Herbicidal effect (in %) against ECHCO ([6]; Table 2 field trial, scoring 21 days after application): 51% | Herbicidal effect (in %) against ECHCO ([6]; Table 3 field trial, scoring 28 days after application): 83% | Herbicidal effect (in %) against ECHCG [7, 11]: 80% | Herbicidal effect (in %) against ECHCG [7, 12]: 95% | Herbicidal effect (in %) against ECHCG [7, 13]: 97%

CCC(=O)Nc1ccc(Cl)c(Cl)c1 [(B1.7), propanil]
Damage (in %) to rice [1, 17]: 0% | Damage (in %) to rice [1, 18]: 5% | Damage (in %) to rice [1, 19]: 5% | Herbicidal effect (in %) against ECHCG [7, 17]: 0% | Herbicidal effect (in %) against ECHCG [7, 18]: 10% | Herbicidal effect (in %) against ECHCG [7, 19]: 30%

CCN(CC)C(=O)SCc1ccc(Cl)cc1 [(B1.11), thiobencarb]
Herbicidal effect (in %) against CYPIR [8]: 78% | Herbicidal effect (in %) against AMARE [9]: 83%

CCN(C(=O)n1nnn(-c2ccccc2Cl)c1=O)C1CCCCC1 [(B1.15), fentrazamid]
Herbicidal effect (in %) against SAGPY ([3]; 25 g of AS/ha): 0% | Herbicidal effect (in %) against SAGPY ([3]; 50 g of AS/ha): 40% | Herbicidal effect (in %) against SAGPY ([3]; 100 g of AS/ha): 80% | Damage (in %) to rice ([5]; Table 5 greenhouse trial, post-emergence 1-2-leaf stage, 25 g of AS/ha): 0% | Damage (in %) to rice ([5]; Table 5 greenhouse trial, post-emergence 1-2-leaf stage, 50 g of AS/ha): 0% | Damage (in %) to rice ([5]; Table 5 greenhouse trial, post-emergence 1-2-leaf stage, 100 g of AS/ha): 0%

CCC/C(=N\OCC(C)Oc1ccc(Cl)cc1)C1=C(O)CC(C2CCCSC2)CC1=O (stereo not shown) [(B1.31), clefoxidim]
Herbicidal effect (in %) against ECHCG ([4]; 18 g of AS/ha): 0% | Herbicidal effect (in %) against ECHCG ([4]; 37 g of AS/ha): 10% | Herbicidal effect (in %) against ECHCG ([4]; 75 g of AS/ha): 83% | Damage (in %) to rice [5, 14]: 0% | Damage (in %) to rice [5, 15]: 0% | Damage (in %) to rice [5, 16]: 0%

Cc1nn(-c2cc(CC(Cl)C(=O)O)c(Cl)cc2F)c(=O)n1C(F)F (stereo not shown) [(B2.2), carfentrazone]
Damage (in %) to rice ([1]; Table 10 field trial, post-emergence 2-4-leaf stage, scoring 28 days after application, 32 g of AS/ha): 13% | Herbicidal effect (in %) against SEBEX [10]: 93%

COc1nc(NC(=O)NS(=O)(=O)c2ccccc2C(F)(F)F)nc(C(F)(F)F)n1 [(B2.4), tritosulfuron]
Damage (in %) to rice [1, 20]: 0% | Herbicidal effect (in %) against ECHCG [7, 20]: 0%
